The text below walks through data of PMC10557616 (bioRxiv, 2023).

Assay type in all cases: biochemical
What all share (conditions): phosphocreatine as phosphate donor

The target of assay [1] is T1, CKM (Homo sapiens, UniProt P06732). The assay is described as follows: uHPLC-MS detection of ATP.
In assay [2] the target is T2, creatine kinase U-type (CKMT1) (Homo sapiens, UniProt P12532). The assay is described as follows: uHPLC-MS detection of ATP.
In assay [3] the target is T2, creatine kinase U-type (CKMT1). The assay is described as follows: uHPLC-MS detection of TFV-DP.
Assay [4] deals with T1, CKM. Nature of the assay: uHPLC-MS detection of TFV-DP.

T1 sequence (P06732 whole entry): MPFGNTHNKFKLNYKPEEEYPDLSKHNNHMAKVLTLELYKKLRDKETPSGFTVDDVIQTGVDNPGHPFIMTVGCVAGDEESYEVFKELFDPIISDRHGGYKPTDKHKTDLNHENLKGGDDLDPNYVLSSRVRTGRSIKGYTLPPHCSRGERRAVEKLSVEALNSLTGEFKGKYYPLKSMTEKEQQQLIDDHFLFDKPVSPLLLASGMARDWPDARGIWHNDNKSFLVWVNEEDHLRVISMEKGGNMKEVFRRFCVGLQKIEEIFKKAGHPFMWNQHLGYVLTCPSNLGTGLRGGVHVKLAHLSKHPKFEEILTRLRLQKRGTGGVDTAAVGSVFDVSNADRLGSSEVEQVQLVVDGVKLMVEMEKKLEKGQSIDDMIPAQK

Take `Nc1ncnc2c1ncn2[C@@H]1O[C@H](COP(=O)(O)OP(=O)(O)O)[C@@H](O)[C@H]1O` [ADP]: the “uHPLC-MS detection of ATP” value in assay [1] is “the proteins were incubated with phosphocreatine and ADP and ATP was detected by uHPLC-MS”; in assay [2] it was “the proteins were incubated with phosphocreatine and ADP and ATP was detected by uHPLC-MS”.

For `C[C@H](Cn1cnc2c(N)ncnc21)OCP(=O)(O)OP(=O)(O)O` [TFV-MP], the “uHPLC-MS detection of TFV-DP” value in assay [3] is listed as “no significant differences in TFV-DP levels between the CKM, CKB, or CKMT1 catalyzed reactions”; in assay [4], “no significant differences in TFV-DP levels between the CKM, CKB, or CKMT1 catalyzed reactions”.
